# From patent EP0612730A1, “O-aryl ethers of morphinans” (F. HOFFMANN-LA ROCHE AG, priority 1993, dated 1994)
# Counter-ions that a name gives are not always drawn.
# Test system: NMDA receptor
# Assay: NMDA-induced convulsions in mice (NMDA-induced anticonvulsant test)
# Assay type: in vivo
# Conditions: NMDA 175 mg/kg i.p. 30 min after i.p. test compound (60 min after oral), percent protection = 100 (E-C)/(10-C), dose and route of test compound not given
# From the text: As indicated above, the compounds of formula I are active as non-competitive NMDA receptor antagonists and are therefore, useful as neuroprotecting agents, for example, in the treatment of injury to central neurons associated with ischemia, hypoxia, hypoglycemia, epilepsy, Huntington's disease or Alzheimer's disease.
# 1. NMDA-Induced convulsions in mice
# Male mice 45-54 days old and weighing 18-30 g are food-deprived for 24 hrs and then assigned in groups of 10 to various treatment conditions. In general, the method of Lehmann et al. described in J. Pharmacol. Exp. Ther. 240, 1987, 737-746, is used. Mice are administered a test compound intraperitoneally and are injected with NMDA (175 mg/kg i.p.) 30 minutes later. If any test compound is administered orally, the NMDA is injected 60 minutes later. NMDA is dissolved in 0.9% saline. Test compounds are likewise dissolved in 0.9% saline or, when necessary, suspended in 5% gum acacia. All injections are made in a volume of 0.2 ml/20 g body weight. […] Results are represented as the number of mice protected at each dose level of a test compound; this gives an indication of the degree of protection at each dose and indicates whether there was a dose level at which complete protection occurred. A formula is used which adjusts for the number of mice "protected" in the control group, since the dose of NMDA used induces convulsions in less than 100 percent of the mice in the control group. The formula used is: percent protection = 100 (E-C)/(10-C), where E is the number of mice protected at the dose of the test compound, C is the number of mice not convulsing in the vehicle control group, and 10 is the number of mice per group. A given dose level of a compound is regarded as being active if this percent protection score is equal to or greater than 50 percent.
row,Compound,% mice protected [%]
1,"CN1CC[C@@]23CCCC[C@@H]2[C@@H]1Cc1ccc(Oc2nccs2)cc13 [Fumarate (the 1st table, row 4)]",86
2,CN1CC[C@@]23CCCC[C@@H]2[C@@H]1Cc1ccc(Oc2ccccn2)cc13 [Oxalate],86
3,"CN1CC[C@@]23CCCC[C@@H]2[C@@H]1Cc1ccc(Oc2cccc(Br)n2)cc13 [Fumarate (the 1st table, row 6)]",67
4,"CC(C)(CO)N1CC[C@]23CCCC[C@H]2[C@H]1Cc1ccc(Oc2ccccn2)cc13 [Example 18, (+)-β,β-dimethyl-3-(2-pyridinyloxy)morphinan-17-ethanol]",50

# Test system: cell suspensions prepared from embryonic rat cortices
# Assay: Acute glutamate neurotoxicity in cortical cell cultures (lactate dehydrogenase release)
# Assay type: cell-based
# Conditions: embryonic rat cortical cultures 8-12 days in vitro, glutamate for 5 to 30 min at room temperature, LDH in supernatant after overnight at 37°C
# Description: 2. Acute glutamate neurotoxicity
# Single cell suspensions were prepared from embryonic rat cortices by digestion with dispase (2.4 U/ml) and subsequent trituration with fire polished Pasteur pipettes. The cells were then plated on poly-D-lysine coated microtiter plates (96 well/plate, 10⁵ cells/well) in a total volume of 100 µl essential medium supplemented with 10% horse serum and penicillin/streptomycin . Five days later, non-neuronal cell division was halted by exposure to […] combined with a 50% exchange of culture medium. The cultures were used for neurotoxicity assays from 8-12 days in vitro. Acute glutamate toxicity was performed as described in J. Koh et al. in Neurosci. 8, 1988, 185-196, in […] of a control salt solution [CSS: 120 mM NaCl, 5.4 mM KCl, 0.8 mm MgCl₂, 1.8 mM CaCl₂, 25 mM Tris HCl (pH 7.4 at 25°C) and 15 mM glycose] with […] glutamate for 5 to 30 min at room temperature with or without addition of substances to be tested.After washing, the cultures were maintained in 100 µl CSS overnight at 37°C. For quantitation of neurodegeneration, lactate dehydrogenase was measured in the cell culture supernatant as described by J.G. Klingman et al. in Neurosci. Meth. 31, 1990, 47-51. […] From dose response curves, IC₅₀ values were calculated.
row,Compound,IC50 [µM]
1,c1ccc(Oc2ccc3c(c2)[C@]24CCCC[C@@H]2[C@H](C3)NCC4)nc1 [Maleate],6
2,CN1CC[C@@]23CCCC[C@@H]2[C@@H]1Cc1ccc(Oc2cccs2)cc13 [Fumarate],13
3,CN1CC[C@@]23CCCC[C@@H]2[C@@H]1Cc1ccc(Oc2ncccc2[N+](=O)[O-])cc13 [Fumarate],5
4,CN1CC[C@@]23CCCC[C@@H]2[C@@H]1Cc1ccc(Oc2ncccc2N)cc13 [2 HCl],14
5,CN1CC[C@@]23CCCC[C@@H]2[C@@H]1Cc1ccc(Oc2ncccn2)cc13 [Fumarate],4
6,"CN1CC[C@]23CCCC[C@H]2[C@H]1Cc1ccc(Oc2ccccn2)cc13 [Example 2, (+)-3-(2-pyridyloxy)-N-methyl-morphinan]",4
7,Cc1cccc(Oc2ccc3c(c2)[C@]24CCCC[C@@H]2[C@H](C3)N(C)CC4)n1 [Fumarate],0.2
8,O=[N+]([O-])c1cccnc1Oc1ccc2c(c1)[C@]13CCCC[C@@H]1[C@H](C2)NCC3 [HCl],0.5
9,c1csc(Oc2ccc3c(c2)[C@]24CCCC[C@@H]2[C@H](C3)NCC4)n1 [Maleate],8
10,CN1CC[C@@]23CCCC[C@@H]2[C@@H]1Cc1ccc(Oc2ccccc2)cc13 [Oxalate],6
11,"CC(C)(CO)N1CC[C@]23CCCC[C@H]2[C@H]1Cc1ccc(Oc2ccccn2)cc13 [Example 18, (+)-β,β-dimethyl-3-(2-pyridinyloxy)morphinan-17-ethanol]",14
12,c1ccc(Oc2ccc3c(c2)[C@]24CCCC[C@@H]2[C@H](C3)NCC4)cc1 [HCl],1
13,CN1CC[C@@]23CCCC[C@@H]2[C@@H]1Cc1ccc(Oc2cccnc2)cc13 [Fumarate],6.4
14,"CN1CC[C@@]23CCCC[C@@H]2[C@@H]1Cc1ccc(Oc2cccc(Br)n2)cc13 [Fumarate (the 3rd table, row 5)]",1 to 2
15,"Cc1cccc(Oc2ccc3c(c2)[C@@]24CCCC[C@H]2[C@@H](C3)NCC4)n1 [Example 22, (+)-3-[6-methyl-(2-pyridinyl)oxy] morphinan]",1 to 2
16,"CN1CC[C@@]23CCCC[C@@H]2[C@@H]1Cc1ccc(Oc2nccs2)cc13 [Fumarate (the 3rd table, row 10)]",5
